# In patent publication US10718770B2, “Methods for screening compounds for treating or preventing a viral infection or a virus-related condition” (ABIVAX, priority 2015, dated 2020):
# How the values were obtained:
# [1] = system: Rev-mediated export of viral RNA; test: HIV reporter system (MS2-GFP) in HeLa cells: Rev-mediated export of viral RNA; format: cell-based; conditions: in the absence of Rev, data not shown
# Source text: FIG. 8. Compound 1 influences Rev-mediated HIV RNA biogenesis and export. A) Schematic representation of the HIV-1 reporter gene B) Visualization of GFP-MS2-Bound RNA in HeLa cells expressing tat, MS2-GFP and HIV-reporter transcripts in non transfected or transfected cells with Rev. Rev-transfected cells were untreated (DMSO) or treated with Compound 1. Arrow indicates transcription site. C) Quantitation of images corresponding to untreated (DMSO) or treated (Compound 1) in (B), in terms of: total GFP (upper panel) expressed in RFU or Relative Fluorescence Units; in the nucleoplasm (middle panel) expressed in Number of Foci in Rev-transfected cells; or at the start site (lower panel) expressed as a percentage of nuclei with a starting transcription point. Box-plots show the average GFP intensity (foci numbers or starting transcription point numbers) of Rev-transfected HeLa cells for each condition. Whiskers correspond to the minimum and maximum, boxes, to the 25-75 percentiles and the band inside the box, to the median. […]
# Cells plated on cover slips were fixed for 10 min in 3.7% formaldehyde (in PBS) followed by a 2-min permeabilization with 0.1% Triton X-100 (in PBS) and incubation in PBS containing 0.1% bovine serum albumin. […] Cells were washed in PBS mounted with DAKO mounting medium and observed under the fluorescence microscope. […]
# HIV-1 strain YU2 = test: HIV-1 p24 production in infected monocyte derived-macrophages; format: cell-based; conditions: Human immunodeficiency virus 1, Primary macrophage, read-out: inhibition levels of virus replication (p24)
# Source text: FIG. 5. Potency of indole derivatives to inhibit HIV-1 production in PBMC- and macrophages-infected cells. A) HIV-1 strain Ada-MR5 was used to infect triplicate of activated PBMCs from different donors (stimulated for two days with PHA and IL2) in the absence or presence of increasing concentrations of Compound 1. Supernatant was harvested 6 days post-infection (pi) and viral capsid protein p24 antigen was quantitated using standard ELISA protocol. Each point represents 6 donors. B) HIV-1 strain YU2 was used to infect triplicate of monocyte derived-macrophages from different donors in the absence or presence of increasing concentrations of Compound 1. Supernatant was harvested 8 days pi and viral capsid protein p24 antigen was quantitated using standard ELISA protocol. Each point represents 8 donors.
# To generate monocyte derived macrophages (MDMs), monocytes were isolated using CD14 microbeads (catalog no. 130-050-201; Miltenyi) and cultured in X-VIVO10 medium (Lonza) supplemented with GM-CSF 1000 U/ml and M-CSF 100 ng/ml for 6 days. Monocytes were seeded at a cell count of 50′000 cells per well in a 96 well plate. After 6 days medium was replaced with X-VIVO10 w/o Cytokines. […]
# Cells were treated with 0.01 μM up to 30 μM and p24 antigen levels were monitored in culture supernatant over a 12 day period. […]
# [2] = system: HIV RNA splicing in infected PBMCs; test: Sequence capture and 454 pyrosequencing of HIV RNA in infected PBMCs; format: cell-based, HIV-1
# Procedure: To test whether Compound 1 influences the splicing of HIV RNA in infected cells, an array-based sequence capture was performed using a customized library probes targeting HIV sequences to get rid of cellular RNA. The probes were used to capture cDNAs prepared from infected treated and untreated PBMCs. After double capture, libraries were prepared and sequenced using 454 pyrosequencing (according to GS junior method manual). The average size of the reads around 400 bp allowed unambiguous assembly of viral genome from untreated sample (after 3 and 6 days of infection) using reads that were not mapped to human genome (hg19). All sequencing data were analysed using gsnap, as detailed in Wu et al. (Fast and SNP-tolerant detection of complex variants and splicing in short reads. Bioinformatics 26, 873-881 (2010)).
# primary macrophages = test: Cell viability of primary macrophages under treatment; format: cell-based, human; conditions: data not shown
# PBMCs = test: Lymphocyte populations in treated PBMCs; format: cell-based, human
structure (smiles),measurement,setting,value
"FC(F)(F)Oc1ccc(Nc2ccc3cccc(Cl)c3n2)cc1 [Compound 1, 8-chloro-N-(4-(trifluoromethoxy)phenyl)quinolin-2-amine]",effect on reporter cells,[1],no effect
same,inhibition at 0.1 µM,HIV-1 strain YU2,≤ 90%
same,coverage of viral genome,[2]; 3 days post infection,4149 reads
same,fraction of reads corresponding to splice junctions,[2]; 3 days post-infection,17.4%
same,fraction of reads corresponding to splice junctions,[2]; 6 days post-infection,13.3%
same,number of reads,[2]; 6 days post-infection,20 585
same,cell viability,primary macrophages,not decreased
same,effect on the different populations of lymphocytes present in PBMCs,PBMCs,did not alter
